Assay [1] relates to DLD-1 BRCA2−/− cells. Briefly: Homologous recombination synthetic lethal inhibition of proliferation, DLD-1 BRCA2-/- (Cell Titre Glo 3D). It counts as cell-based. Conditions: for IC50: Homo sapiens. Put shortly:
(§1)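 Proliferation of HR-deficient DLD-1 BRCA2−/− versus isogenic wild-type DLD-1 was measured by ATP luminescence (CellTiter-Glo 3D). Compound exposure lasted 12 or 7 days, respectively, with a fresh dose on day 6. IC50 was the concentration halving maximal signal.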

Assay [2] deals with DLD-1 cells. Briefly: Inhibition of proliferation, DLD-1 BRCA2 wt control (Cell Titre Glo 3D). The format is cell-based. The following applies: for IC50: Homo sapiens. Put shortly:
as §1

[3] abbreviates: DLD-1, DLD-1 BRCA2 −/−, mean, read-out: POLQ PD Prolif Lumin BRCA2 −/− mean pIC50 (converted).
[4] abbreviates: DLD-1, DLD1 BRCA2 wt, mean, read-out: POLQ PD Prolif Lumin DLD1 mean pIC50 (converted).
The mark [5] stands for this setting: DLD-1, first proliferation column (c5), DLD-1 BRCA2-/-, read-out: POLQ PD Prolif Lumin (converted).
Where [6] appears, read: DLD-1, second proliferation column (c6), DLD-1 BRCA2 wt control, read-out: POLQ PD Prolif Lumin (converted).
[7] abbreviates: DLD-1, proliferation, luminescence, taken as DLD-1 BRCA2-/-, read-out: POLQ PD Prolif Lumin (converted).
Where [8] appears, read: DLD-1, proliferation, luminescence, second Prolif column (c6), taken as DLD-1 BRCA2 wt control, read-out: POLQ PD Prolif Lumin (converted).
Where [9] appears, read: DLD-1, first proliferation column (c5), taken as DLD-1 BRCA2-/-, read-out: POLQ PD Prolif Lumin (converted).
Setting [10] is: DLD-1, second proliferation column (c6), taken as DLD-1 BRCA2 wt, read-out: POLQ PD Prolif Lumin (converted).
Setting [11] is: DLD-1, 288 h, DLD-1 BRCA2−/− cells, 12 days, read-out: POLQ PD Prolif Lumin BRCA2 −/− mean pIC50 (converted).
Setting [12] is: DLD-1, 168 h, DLD-1 BRCA2 wt cells, 7 days, read-out: POLQ PD Prolif Lumin DLD1 mean pIC50 (converted).
Setting [13] is: DLD-1, DLD-1 BRCA2 −/− cells, mean, read-out: POLQ PD Prolif Lumin BRCA2 −/− mean pIC50 (converted).
Setting [14] is: DLD-1, DLD1 BRCA2 wt cells, mean, read-out: POLQ PD Prolif Lumin DLD1 mean PIC50 (converted).

Where two headings read alike, the source gives them in different places.

In the case of `COc1ccc(C#N)cc1Cn1c(-c2ccc(OCCC(C)C(=O)O)cc2Cl)nc2c(OC3(C)CC3)ncnc21` (racemic) [Example U14, 4-(3-chloro-4-(9-(5-cyano-2-methoxybenzyl)-6-(1-methylcyclopropoxy)-9H-purin-8-yl)phenoxy)-2-methylbutanoic acid], the values for the IC50 in assay [1] (setting [3]) and in assay [2] (setting [4]) were 0.398 µM and greater than 10 µM, respectively.
For `CC(CCOc1ccc(-c2nc3c(OC4(C)CC4)ncnc3n2Cc2c(F)cccc2C#N)c(Cl)c1)C(=O)O` (racemic) [Example U13, 4-(3-chloro-4-(9-(2-cyano-6-fluorobenzyl)-6-(1-methylcyclopropoxy)-9H-purin-8-yl)phenoxy)-2-methylbutanoic acid], the IC50 was 3.16 µM in assay [1] (setting [3]) and greater than 10 µM in assay [2] (setting [4]).
For the compound `Cc1ccnc(Cn2c(-c3ccc(CC(=O)N4C[C@@H]5C[C@H]4CN5)cc3Cl)nc3c(OC4(C)CC4)ncnc32)c1` [Example T559, 1-((1S,4S)-2,5-diazabicyclo[2.2.1]heptan-2-yl)-2-(3-chloro-4-(6-(1-methylcyclopropoxy)-9-((4-methylpyridin-2-yl)methyl)-9H-purin-8-yl)phenyl)ethan-1-one], the IC50 in assay [1] (setting [5]) is greater than 6.31 µM; in assay [2] (setting [6]), greater than 10 µM.
On to `Cc1ccnc(Cn2c(-c3ccc(C(=O)N4CCC(O)CC4)cc3Cl)nc3c(OC4(C)CC4)ncnc32)c1` [Example T460, (3-chloro-4-(6-(1-methylcyclopropoxy)-9-((4-methylpyridin-2-yl)methyl)-9H-purin-8-yl)phenyl)(4-hydroxypiperidin-1-yl)methanone], for which the figures for the IC50 in assay [1] (setting [7]) and in assay [2] (setting [8]) were 3.16 µM and greater than 10 µM, respectively.
`Cc1ccnc(Cn2c(-c3ccc(OCCN4CC5(CCN5)C4)cc3Cl)nc3c(OC4(C)CC4)ncnc32)c1` [Example T587, 8-(4-(2-(1,6-diazaspiro[3.3]heptan-6-yl)ethoxy)-2-chlorophenyl)-6-(1-methylcyclopropoxy)-9-((4-methylpyridin-2-yl)methyl)-9H-purine]: the IC50 was 1 µM in assay [1] (DLD-1, first proliferation column, DLD-1 BRCA2-/-, read-out: POLQ PD Prolif Lumin (converted)) and greater than 10 µM in assay [2] (DLD-1, second proliferation column, DLD-1 BRCA2 wt control, read-out: POLQ PD Prolif Lumin (converted)).
In the case of `CC1(Oc2ncnc3c2nc(-c2ccc(OCCN4CC(O)C4)cc2Cl)n3Cc2cc(C(F)F)ccn2)CC1` [Example T307, 1-(2-(3-chloro-4-(9-((4-(difluoromethyl)pyridin-2-yl)methyl)-6-(1-methylcyclopropoxy)-9H-purin-8-yl)phenoxy)ethyl)azetidin-3-ol], the IC50 in assay [1] (setting [9]) was 1.58 µM; in assay [2] (setting [10]) it was greater than 10 µM.
For the compound `Cc1ccnc(Cn2c(-c3ccc(OC4CC5(CNC5)C4)cc3Cl)nc3c(OC4(C)CC4)ncnc32)c1` [Example T457, 8-(4-((2-azaspiro[3.3]heptan-6-yl)oxy)-2-chlorophenyl)-6-(1-methylcyclopropoxy)-9-((4-methylpyridin-2-yl)methyl)-9H-purine], the IC50 in assay [1] (setting [7]) is 0.316 µM; in assay [2] (setting [8]) it was greater than 10 µM.
With `Cc1cc(OC[C@H]2COCCN2)ncc1-c1nc2c(OC3(C)CC3)ncnc2n1Cc1ccccc1` [Example G16, (R)-3-(((5-(9-benzyl-6-(1-methylcyclopropoxy)-9H-purin-8-yl)-4-methylpyridin-2-yl)oxy)methyl)morpholine], the figures for the IC50 in assay [1] (setting [11]) and in assay [2] (setting [12]) were 0.794 µM and greater than 10 µM, respectively.
In the case of `CNC(=O)c1ccc(-c2nc3c(OC4(C)CC4)ncnc3n2Cc2cc(C)ccn2)c(Cl)c1` [Example T52, 3-chloro-N-methyl-4-(6-(1-methylcyclopropoxy)-9-((4-methylpyridin-2-yl)methyl)-9H-purin-8-yl)benzamide], the IC50 in assay [1] (setting [13]) was 0.501 µM; in assay [2] (setting [14]), greater than 10 µM.
For `CC1(Oc2ncnc3c2nc(-c2ccc(OCCN4CCNCC4)cc2Cl)n3Cc2ccc(C#N)cn2)CC1` [Example T484, 6-((8-(2-chloro-4-(2-(piperazin-1-yl)ethoxy)phenyl)-6-(1-methylcyclopropoxy)-9H-purin-9-yl)methyl)nicotinonitrile], the values for the IC50 in assay [1] (setting [5]) and in assay [2] (setting [6]) were greater than 7.94 µM and greater than 10 µM, respectively.
Consider `CC1(Oc2ncnc3c2nc(-c2ccc(OCCc4nn[nH]n4)cc2Cl)n3Cc2cccc(Cl)c2)CC1` [Example T92, 8-(4-(2-(2H-tetrazol-5-yl)ethoxy)-2-chlorophenyl)-9-(3-chlorobenzyl)-6-(1-methylcyclopropoxy)-9H-purine], for which the values for the IC50 in assay [1] (setting [13]) and in assay [2] (setting [14]) were 2 µM and greater than 10 µM, respectively.
As to `CN1CCCC(Oc2ccc(-c3nc4c(OC5(C)CC5)ncnc4n3Cc3ccccc3)c(Cl)c2)CC1` (single isomer, unassigned) [Example D14, 9-benzyl-8-(2-chloro-4-((1-methylazepan-4-yl)oxy)phenyl)-6-(1-methylcyclopropoxy)-9H-purine], in assay [1] (DLD-1 BRCA2−/− cells, 12 days), the “POLQ PD Prolif Lumin BRCA2 −/− mean pIC50” value is 7.0. In assay [2] (DLD-1 BRCA2 wt cells, 7 days), the “POLQ PD Prolif Lumin DLD1 mean pIC50” value is 5.4.
On to `Cc1cc(OCCN2CCN(C)CC2)ncc1-c1nc2cc(OC(C)C)ccc2n1Cc1cccc(Cl)c1` [Example A7, 1-(3-chlorobenzyl)-5-isopropoxy-2-(4-methyl-6-(2-(4-methylpiperazin-1-yl)ethoxy)pyridin-3-yl)-1H-benzo[d]imidazole], for which the values for the IC50 in assay [1] (setting [11]) and in assay [2] (setting [12]) were 0.251 µM and 1.58 µM, respectively.
Take `COc1ccc(Cl)cc1Cn1c(-c2ccc(OCCCC(C)(C)C(=O)O)cc2Cl)nc2c(OC3(C)CC3)ncnc21` [Example U47, 5-(3-chloro-4-(9-(5-chloro-2-methoxybenzyl)-6-(1-methylcyclopropoxy)-9H-purin-8-yl)phenoxy)-2,2-dimethylpentanoic acid]: the IC50 in assay [1] (setting [3]) was 0.0316 µM; in assay [2] (setting [4]), 6.31 µM.
Regarding `CC1(Oc2ncnc3c2nc(-c2ccc(OCCCC(=O)NS(C)(=O)=O)cc2Cl)n3Cc2cccc(Cl)c2)CC1` [Example T326, 4-(3-chloro-4-(9-(3-chlorobenzyl)-6-(1-methylcyclopropoxy)-9H-purin-8-yl)phenoxy)-N-(methylsulfonyl)butanamide], the IC50 in assay [1] (setting [9]) was 0.631 µM; in assay [2] (setting [10]), greater than 10 µM.
For `Cc1ccnc(Cn2c(-c3ccc(OCCN)cc3Cl)nc3c(OC4(C)CC4)ncnc32)c1` [Example T69, 2-(3-chloro-4-(6-(1-methylcyclopropoxy)-9-((4-methylpyridin-2-yl)methyl)-9H-purin-8-yl)phenoxy)ethan-1-amine], the IC50 in assay [1] (setting [13]) was 0.2 µM; in assay [2] (setting [14]) it was greater than 10 µM.
For the compound `Cc1cc(O[C@H]2CCNC2)ncc1-c1nc2c(OC3(C)CC3)ncnc2n1Cc1ccccc1` [Example G11, (S)-9-benzyl-8-(4-methyl-6-(pyrrolidin-3-yloxy)pyridin-3-yl)-6-(1-methylcyclopropoxy)-9H-purine], the IC50 in assay [1] (setting [11]) is 1.26 µM; in assay [2] (setting [12]), 6.31 µM.
`CC(COc1ccc(-c2nc3c(OC4(C)CC4)ncnc3n2Cc2cccc(Cl)c2)c(Cl)c1)CC(=O)O` (single isomer, unassigned) [Example T295, 4-(3-chloro-4-(9-(3-chlorobenzyl)-6-(1-methylcyclopropoxy)-9H-purin-8-yl)phenoxy)-3-methylbutanoic acid]: the “POLQ PD Prolif Lumin” value in assay [1] (DLD-1 BRCA2-/- proliferation, column head only partly shown) is recorded as 6.9; in assay [2] (DLD-1 BRCA2 wt control proliferation, column head only partly shown) it was less than 5.0.
With `Cc1ccnc(Cn2c(-c3ccc(CCC(N)=O)cc3Cl)nc3c(OC4(C)CC4)ncnc32)c1` [Example T116, 3-(3-chloro-4-(6-(1-methylcyclopropoxy)-9-((4-methylpyridin-2-yl)methyl)-9H-purin-8-yl)phenyl)propanamide], the IC50 in assay [1] (setting [5]) was 0.631 µM; in assay [2] (setting [6]) it was greater than 10 µM.
Regarding `COc1ccc(Cl)cc1Cn1c(-c2cccc(O[C@H]3CC[C@H](C(=O)O)CC3)c2Cl)nc2c(OC3(C)CC3)ncnc21` [Example U38, (1r,4r)-4-(2-chloro-3-(9-(5-chloro-2-methoxybenzyl)-6-(1-methylcyclopropoxy)-9H-purin-8-yl)phenoxy)cyclohexane-1-carboxylic acid], in assay [1] (DLD-1 BRCA2 −/−, mean), the “POLQ PD Prolif Lumin BRCA2 −/− mean pIC50” value turned out to be 7.5. Moreover, the “POLQ PD Prolif Lumin DLD1 mean pIC50” value in assay [2] (DLD1 BRCA2 wt, mean) came to 5.1.
For the compound `Cc1ccnc(Cn2c(-c3ccc(CCN4CC(O)C4)cc3Cl)nc3c(OC4(C)CC4)ncnc32)c1` [Example T355, 1-(3-chloro-4-(6-(1-methylcyclopropoxy)-9-((4-methylpyridin-2-yl)methyl)-9H-purin-8-yl)phenethyl)azetidin-3-ol], the IC50 is 0.631 µM in assay [1] (setting [9]) and greater than 10 µM in assay [2] (setting [10]).
